Measurements from patent publication US20130217640A1 (priority 2010, published 2013).
In brackets after ≈: the same amount, converted by molar mass. One block for each compound: values may come before it.

Columns and labels:
[1] = Solution stability study at three pD's in phosphate buffered D2O, monitored by 1H NMR; type: physicochemical; conditions: 23° C.; for stability in solution (in words): pD 5.0, 6.0 and 7.0, phosphate buffered D2O, protected from light; for change in 1H NMR spectra: after 167 days, pD 5.0, 6.0, 7.0 in D2O
Description: 10 mL (11.07 g) D2O was placed in 3 separate vials with a stir bar and 0.002 moles (0.272 g) monobasic potassium phosphate (KH2PO4) was added to each. With the pD metered, NaOD/D2O was added drop-wise to each to adjust the pD's to 5.0, 6.0, and 7.0. Each of these solutions was gently boiled before use. Thus each vial contained […] phosphate buffered solution. […] The sample was sterilized by heating for 10 seconds, and after it had cooled down to ambient temperature (about 1 minute), 0.3 mL of one of the 0.2 mM 3 buffered solutions was added. The 0.6 mL sample was then placed in a sterilized NMR tube and the tube sealed and labeled. Each of the samples was stored at 23° C. protected from the light and monitored by ^1H NMR (64 scans for each sample) periodically.

[2] = Pharmacokinetics after intravenous administration: pro-drug and released acetaminophen in plasma or blood; type: in vivo, male Sprague-Dawley rats; conditions: for half-life: male, Sprague-Dawley, plasma, 66.3 umol/kg, read-out: half life (t1/2) of the pro-drug; for half-life / AUC of the pro-drug (in words) / half-life of the pro-drug (in words): target dose 66.3 μmol/Kg, Table 4
[3] = Water solubility of the analogs (saturated D2O solution, 1H NMR against DSS standard); type: physicochemical; conditions: for water solubility (in words): D2O, Table 1
Description: The method use involved stirring the sample in D2O for a period of 3 days, followed by filtration using a 0.2μ syringe filter. A measured volume of this saturated solution was diluted with a standard solution of DSS in D2O, and a ^1H NMR was taken. Integration of the DSS peaks compared to that of the analog would allow for the determination of its concentration, and thus the concentration of the saturated solution.

- stability in solution (in words) [1]: least stable to all of the pD's
Compound: CC(=O)Nc1ccc(O[C@@H]2C=C[C@H](O)[C@@H](CO)O2)cc1 [Compound 1, N-(4-((2R,5S,6R)-5-hydroxy-6-(hydroxymethyl)-5,6-dihydro-2H-pyran-2-yloxy)phenyl)acetamide, reference compound]

- half-life ([2]; rat, intravenous): < 1 h
- AUC of the pro-drug (in words) ([2]; rat, intravenous): low values for AUC
Compound: CC(=O)Nc1ccc(O[C@H]2O[C@H](COC(=O)C(C)C)[C@@H](O)[C@H](O)[C@@H]2O)cc1 [Compound 19, 1-(4′-acetamidophenoxy)-6-O-isobutyrylmannose]

- change in 1H NMR spectra [1]: no change
- water solubility (in words) [3]: highest solubility of all of the analogs
Compound: CC(=O)Nc1ccc(O[C@H]2O[C@H](CO)[C@@H](OC3O[C@H](CO)[C@@H](O)[C@H](O)[C@H]3O)[C@H](O)[C@@H]2O)cc1 (stereo partly drawn) [Compound 5, 1-(4-acetaminophenoxy) 2-epi maltose]

- change in 1H NMR spectra [1]: no change
- water solubility ([3]; stirred in D2O for 3 days, filtered 0.2μ, 1H NMR integration vs DSS): 13 mg/mL (≈ 86 mM)
Compound: CC(=O)Nc1ccc(O)cc1 [acetaminophen, reference compound]

- stability in solution (in words) [1]: showing a lot of instability
Compound: CC(=O)Nc1ccc(O[C@@H]2CC[C@H](O)[C@@H](CO)O2)cc1 [Compound 12, 1-(4′-acetamidophenoxy) 2,3-dideoxy glucose]

- water solubility (in words) [3]: excellent solubility
Compound: CCCC(=O)OC[C@H]1O[C@H](Oc2ccc(NC(C)=O)cc2)C=C[C@@H]1O [Compound 16, 1-(4′-acetamidophenoxy)-6-O-butyryl-2,3-dideoxy 2,3-didehydro glucose]

- change in 1H NMR spectra [1]: no change
- half-life ([2]; rat, intravenous): < 1 h
- half-life of the pro-drug (in words) ([2]; rat, intravenous): relatively high half-lives
Compound: CC(=O)Nc1ccc(O[C@H]2O[C@H](CO)[C@@H](O)[C@H](O)[C@@H]2O)cc1 [Compound 8, N-(4-((2R,3S,4S,5S,6R)-3,4,5-trihydroxy-6-(hydroxymethyl)tetrahydro-2H-pyran-2-yloxy)phenyl)acetamide]

- AUC of the pro-drug (in words) ([2]; rat, intravenous): high AUC values
- half-life of the pro-drug (in words) ([2]; rat, intravenous): relatively high half-lives
Compound: CC(=O)Nc1ccc(O[C@H]2O[C@H](C)[C@@H](O)[C@H](O)[C@@H]2O)cc1 [Compound 23, 1-(4′-acetamidophenoxy)-6-deoxymannose]

- half-life ([2]; rat, intravenous): < 1 h
- AUC of the pro-drug (in words) ([2]; rat, intravenous): low values for AUC
Compound: CCCC(=O)OC[C@H]1O[C@H](Oc2ccc(NC(C)=O)cc2)[C@@H](O)[C@@H](O)[C@@H]1O [Compound 18, 1-(4′-acetamidophenoxy)-6-O-butyrylmannose]

- half-life ([2]; rat, intravenous): < 1 h
- AUC of the pro-drug (in words) ([2]; rat, intravenous): low values for AUC
Compound: CC(=O)Nc1ccc(O[C@H]2O[C@H](COC(C)=O)[C@@H](O)[C@H](O)[C@@H]2O)cc1 [Compound 15]
- AUC of acetaminophen released by the pro-drug (in words) ([2]; rat, intravenous, Table 5): largest AUC value of all of the pro-drugs
- overall characteristics (water solubility, release of acetaminophen, AUC) ([2]; summary statement): best combination of water solubility, quick release of the acetaminophen, and AUC

- AUC of the pro-drug (in words) ([2]; rat, intravenous): high AUC values
- half-life of the pro-drug (in words) ([2]; rat, intravenous): relatively high half-lives
Compound: CC(=O)Nc1ccc(O[C@H]2O[C@H](COC(=O)CCC(=O)O)[C@@H](O)[C@H](O)[C@@H]2O)cc1 [Compound 20]
